Reference: ChEMBL document CHEMBL4014287, “Jesridonin in combination with paclitaxel demonstrates synergistic anti-tumor activity in human esophageal carcinoma cells” (Bioorg Med Chem Lett, 2017)
The source made the active and inactive calls. The calls are words filed in the database; no cut-off is given here.

What was measured:
ECa-109 cell line [1] = assay: Cytotoxicity against human EC109 cells assessed as combination index at 30 uM in presence of 2.5 nM paclitaxel; format: functional
ECa-109 cell line [2] = assay: Cytotoxicity against human EC109 cells assessed as combination index at 15 uM in presence of 10 nM paclitaxel; format: functional
ECa-109 cell line [3] = assay: Antitumor activity against human EC109 cells xenografted in nude mouse assessed as increase in apoptotic cells at 10 mg/kg in presence of paclitaxel measured after 21 days by TUNEL assay; format: functional, organism-based
ECa-109 cell line [4] = assay: Cytotoxicity against human EC109 cells assessed as combination index at 10 uM in presence of 10 nM paclitaxel; format: functional
Mus musculus [5] = assay: Hepatotoxicity in nude mouse xenografted with human EC109 cells assessed as change in serum albumin level at 10 mg/kg in presence of paclitaxel measured after 21 days; format: toxicity, organism-based; details: in vivo, 504 h
ECa-109 cell line [6] = assay: Cytotoxicity against human EC109 cells assessed as combination index at 15 uM in presence of 2.5 nM paclitaxel; format: functional
ECa-109 cell line [7] = assay: Induction of apoptosis in human EC109 cells assessed as necrotic cells at 15 uM after 24 hrs in presence of paclitaxel by Annexin V-FITC/propidium iodide staining based flow cytometry (reference value: 1.6 %); format: functional
ECa-109 cell line [8] = assay: Induction of apoptosis in human EC109 cells assessed as late apoptotic cells at 15 uM after 24 hrs by Annexin V-FITC/propidium iodide staining based flow cytometry (reference value: 1%); format: functional
ECa-109 cell line [9] = assay: Induction of apoptosis in human EC109 cells assessed as late apoptotic cells at 15 uM after 24 hrs in presence of paclitaxel by Annexin V-FITC/propidium iodide staining based flow cytometry (reference value: 1%); format: functional
Mus musculus [10] = assay: Toxicity in nude mouse xenografted with human EC109 cells assessed as pathological changes at 10 mg/kg in presence of paclitaxel measured after 21 days; format: organism-based; details: in vivo, 504 h
ECa-109 cell line [11] = assay: Induction of apoptosis in human EC109 cells assessed as decrease in pro-caspase 9 expression at 15 uM in presence of 5 nM paclitaxel by Western blot method; format: functional, cell-based
Mus musculus [12] = assay: Nephrotoxicity in nude mouse xenografted with human EC109 cells at 10 mg/kg in presence of paclitaxel measured after 21 days by histopathological analysis; format: toxicity, organism-based; details: in vivo, 504 h
ECa-109 cell line [13] = assay: Induction of apoptosis in human EC109 cells assessed as decrease in Bcl-XL level at 15 uM in presence of 5 nM paclitaxel by Western blot method; format: functional, cell-based
ECa-109 cell line [14] = assay: Cytotoxicity against human EC109 cells assessed as combination index at 5 uM in presence of 2.5 nM paclitaxel; format: functional
ECa-109 cell line [15] = assay: Induction of apoptosis in human EC109 cells assessed as nuclear condensation at 15 uM after 24 hrs by Hochest 33258 staining based fluorescent microscopic analysis; format: functional, cell-based
ECa-109 cell line [16] = assay: Antitumor activity against human EC109 cells xenografted in nude mouse assessed as reduction in tumor size at 10 mg/kg in presence of 5 mg/kg paclitaxel measured after 21 days; format: functional, organism-based
ECa-109 cell line [17] = assay: Induction of apoptosis in human EC109 cells assessed as increase in Bid level at 15 uM in presence of 5 nM paclitaxel by Western blot method; format: functional, cell-based
ECa-109 cell line [18] = assay: Cytotoxicity against human EC109 cells assessed as combination index at 30 uM in presence of 10 nM paclitaxel; format: functional
Mus musculus [19] = assay: Cardiotoxicity in nude mouse xenografted with human EC109 cells at 10 mg/kg in presence of paclitaxel measured after 21 days by histopathological analysis; format: toxicity, organism-based; details: in vivo, 504 h
ECa-109 cell line [20] = assay: Induction of apoptosis in human EC109 cells assessed as early apoptotic cells at 15 uM after 24 hrs in presence of paclitaxel by Annexin V-FITC/propidium iodide staining based flow cytometry (reference value: 1.3%); format: functional
ECa-109 cell line [21] = assay: Cytotoxicity against human EC109 cells assessed as combination index at 10 uM in presence of 5 nM paclitaxel; format: functional
ECa-109 cell line [22] = assay: Cytotoxicity against human EC109 cells assessed as combination index at 15 uM in presence of 5 nM paclitaxel; format: functional
ECa-109 cell line [23] = assay: Antitumor activity against human EC109 cells xenografted in nude mouse assessed as induction of necrosis at 10 mg/kg measured after 21 days by H and E staining based assay; format: functional, organism-based
ECa-109 cell line [24] = assay: Induction of apoptosis in human EC109 cells assessed as decrease in Mcl-1 level at 15 uM in presence of 5 nM paclitaxel by Western blot method; format: functional, cell-based
ECa-109 cell line [25] = assay: Induction of apoptosis in human EC109 cells assessed as early apoptotic cells at 15 uM after 24 hrs by Annexin V-FITC/propidium iodide staining based flow cytometry (reference value: 1.3%); format: functional
Mus musculus [26] = assay: Toxicity in nude mouse xenografted with human EC109 cells assessed as body weight loss at 10 mg/kg in presence of paclitaxel measured after 21 days; format: organism-based; details: in vivo, 504 h
Mus musculus [27] = assay: Toxicity in nude mouse xenografted with human EC109 cells assessed as body weight loss at 10 mg/kg measured after 21 days; format: organism-based; details: in vivo, 504 h
ECa-109 cell line [28] = assay: Cytotoxicity against human EC109 cells assessed as combination index at 5 uM in presence of 10 nM paclitaxel; format: functional
ECa-109 cell line [29] = assay: Cytotoxicity against human EC109 cells assessed as combination index at 30 uM in presence of 5 nM paclitaxel; format: functional
ECa-109 cell line [30] = assay: Induction of apoptosis in human EC109 cells assessed as increase in Bak level at 15 uM in presence of 5 nM paclitaxel by Western blot method; format: functional, cell-based
ECa-109 cell line [31] = assay: Cytotoxicity against human EC109 cells assessed as combination index at 5 uM in presence of 5 nM paclitaxel; format: functional
Mus musculus [32] = assay: Hepatotoxicity in nude mouse xenografted with human EC109 cells assessed as change in serum total protein level at 10 mg/kg in presence of paclitaxel measured after 21 days; format: toxicity, organism-based; details: in vivo, 504 h
ECa-109 cell line [33] = assay: Antitumor activity against human EC109 cells xenografted in nude mouse assessed as reduction in tumor volume at 10 mg/kg in presence of 5 mg/kg paclitaxel measured after 21 days; format: functional, organism-based
Mus musculus [34] = assay: Toxicity in nude mouse xenografted with human EC109 cells assessed as effect on lungs at 10 mg/kg in presence of paclitaxel measured after 21 days by histopathological analysis; format: organism-based; details: in vivo, 504 h
ECa-109 cell line [35] = assay: Induction of apoptosis in human EC109 cells assessed as nuclear shrinkage at 15 uM in presence of 5 nM paclitaxel after 24 hrs by Hochest 33258 staining based fluorescent microscopic analysis; format: functional, cell-based
Mus musculus [36] = assay: Hepatotoxicity in nude mouse xenografted with human EC109 cells assessed as change in serum AST level at 10 mg/kg in presence of paclitaxel measured after 21 days; format: toxicity, organism-based; details: in vivo, 504 h
Mus musculus [37] = assay: Toxicity in nude mouse xenografted with human EC109 cells assessed as skin ulceration at 10 mg/kg measured after 21 days; format: organism-based; details: in vivo, 504 h
ECa-109 cell line [38] = assay: Induction of apoptosis in human EC109 cells assessed as increase in Bax level at 15 uM in presence of 5 nM paclitaxel by Western blot method; format: functional, cell-based
ECa-109 cell line [39] = assay: Antitumor activity against human EC109 cells xenografted in nude mouse assessed as induction of necrosis at 10 mg/kg in presence of paclitaxel measured after 21 days by H and E staining based assay; format: functional, organism-based
ECa-109 cell line [40] = assay: Induction of apoptosis in human EC109 cells assessed as nuclear shrinkage at 15 uM after 24 hrs by Hochest 33258 staining based fluorescent microscopic analysis; format: functional, cell-based

With `C=C1C(=O)[C@@]23[C@@H]4OC(c5ccc(Cl)cc5)O[C@@]25OC[C@@]2([C@H]([C@@H]5O)C(C)(C)CC[C@@H]2O)[C@@H]3CC[C@@H]14` (stereo not given in full) the CI (ECa-109 cell line [1]) was 1.15, the CI (ECa-109 cell line [2]) was 0.68 and the Activity (ECa-109 cell line [3]) was “Active”. The CI (ECa-109 cell line [4]) was 0.43, the Activity (Mus musculus [5]) was “Non-Toxic” and the CI (ECa-109 cell line [6]) was 0.6. For the same molecule, the Activity (ECa-109 cell line [7]) was 1.5%, the Activity (ECa-109 cell line [8]) was 5.3% and the Activity (ECa-109 cell line [9]) was 9.7%. The Activity (Mus musculus [10]) was “Non-Toxic”, the Activity (ECa-109 cell line [11]) was “Active” and the Activity (Mus musculus [12]) was “Non-Toxic”. For the same molecule, the Activity (ECa-109 cell line [13]) was “Active”, the CI (ECa-109 cell line [14]) was 1.79 and the Activity (ECa-109 cell line [15]) was “Active”. The Activity (ECa-109 cell line [16]) was “Active”, the Activity (ECa-109 cell line [17]) was “Active” and the CI (ECa-109 cell line [18]) was 1.12. For the same molecule, the Activity (Mus musculus [19]) was “Non-Toxic”, the Activity (ECa-109 cell line [20]) was 36.1% and the CI (ECa-109 cell line [21]) was 0.43. For the same molecule, the CI (ECa-109 cell line [22]) was 0.37, the Activity (ECa-109 cell line [23]) was “Active” and the Activity (ECa-109 cell line [24]) was “Active”. For the same molecule, the Activity (ECa-109 cell line [25]) was 20.2%, the Activity (Mus musculus [26]) was “Non-Toxic” and the Activity (Mus musculus [27]) was “Non-Toxic”. For the same molecule, the CI (ECa-109 cell line [28]) was 0.48, the CI (ECa-109 cell line [29]) was 0.93 and the Activity (ECa-109 cell line [30]) was “Active”. For the same molecule, the CI (ECa-109 cell line [31]) was 0.75, the Activity (Mus musculus [32]) was “Non-Toxic” and the Activity (ECa-109 cell line [33]) was “Active”. The Activity (Mus musculus [34]) was “Non-Toxic”, the Activity (ECa-109 cell line [35]) was “Active” and the Activity (Mus musculus [36]) was “Non-Toxic”. The Activity (Mus musculus [37]) was “Non-Toxic”, the Activity (ECa-109 cell line [38]) was “Active” and the Activity (ECa-109 cell line [39]) was “Active”. For the same molecule, the Activity (ECa-109 cell line [40]) was “Active”.
